Experimental data: US6239130A, “Phosphodiesterase 4-inhibiting diazepinoindolones” (Warner-Lambert Company, priority 1997, dated 2001)

System: PDE4 enzyme of human origin
Assay: PDE4-inhibiting activity on an enzyme preparation obtained from the U937 cell line
Type: biochemical
Description: In the case of the PDE4 enzymes, this value is compared with that of rolipram, a specific PDE4 inhibitor. […] Measurement of the enzyme activity of the different types of PDE, and especially of the PDE4 enzymes, is then carried out according to a method adapted from W. J. Thompson, ibidem.

SMILES: Cc1cc2c3c(c1)C(c1ccccc1)=NC(n1c(C)nc4cc(C(=O)OCCN5CCOCC5)ccc4c1=O)C(=O)N3CC2 (centres unmarked) [Example 10, 2-(4-morpholinyl)ethyl 2-methyl-3-(9-methyl-4-oxo-1-phenyl-3,4,6,7-tetrahydro-[1,4]diazepino-[6,7,1-hi]indol-3-yl)-4-oxo-3,4-dihydroquinazoline-7-carboxylate]
- IC50: 183 nM

SMILES: CC(=O)OCCOC(=O)c1ccc2c(=O)n(C3N=C(c4ccccc4)c4cc(C)cc5c4N(CC5)C3=O)c(C)nc2c1 (centres unmarked) [Example 10A, 2-acetoxyethyl 2-methyl-3-(9-methyl-4-oxo-1-phenyl-3,4,6,7-tetrahydro[1,4]diazepino[6,7,1-hi]indol-3-yl)-4-oxo-3,4dihydroquinazoline-7-carboxylate]
- IC50: 108 nM

SMILES: COCCOC(=O)c1ccc2c(=O)n(C3N=C(c4ccccc4)c4cc(C)cc5c4N(CC5)C3=O)c(C)nc2c1 (centres unmarked) [Example 10B, 2-Methoxyethyl 2-methyl-3-(9-methyl-4-oxo-1-phenyl-3,4,6,7-tetrahydro[1,4]diazepino[6,7,1-hi]indol-3-yl)-4-oxo-3,4-dihydroquinazoline-7-carboxylate]
- IC50: 155 nM

SMILES: Cc1cc2c3c(c1)C(c1ccccc1)=NC(n1c(C)nc4cc(C(=O)OCCO)ccc4c1=O)C(=O)N3CC2 (centres unmarked) [Example 10C, 2-Hydroxyethyl 2-methyl-3-(9-methyl-4-oxo-1-phenyl-3,4,6,7-tetrahydro[1,4]diazepino[6,7,1-hi]indol-3-yl)-4-oxo-3,4-dihydroquinazoline-7-carboxylate]
- IC50: 81 nM

SMILES: Cc1cc2c3c(c1)C(c1ccccc1)=NC(n1c(C)nc4cc(C(=O)OC[C@@H](O)CO)ccc4c1=O)C(=O)N3CC2 (stereo partly drawn) [Example 10D, 1-(2S)-glyceryl 2-methyl-3-(9-methyl-4-oxo-1-phenyl-3,4,6,7-tetrahydro[1,4]diazepino[6,7,1-hi]indol-3-yl)-4-oxo-3,4-dihydroquinazoline-7-carboxylate]
- IC50: 42 nM

SMILES: Cc1cc2c3c(c1)C(c1ccccc1)=NC(n1c(C)nc4cc(C(=O)OCC(O)CN5CCOCC5)ccc4c1=O)C(=O)N3CC2 (centres unmarked) [Example 10E, 2-hydroxy-3-morpholin-4-ylpropyl 2-methyl-3-(9-methyl-4-oxo-1-phenyl-3,4,6,7-tetrahydro[1,4]diazepino[6,7,1-hi]indol-3-yl)-4-oxo-3,4-dihydroquinazoline-7-carboxylate]
- IC50: 75 nM

SMILES: Cc1cc2c3c(c1)C(c1ccccc1)=NC(n1c(C)nc4cc(CO)ccc4c1=O)C(=O)N3CC2 (centres unmarked) [Example 11, 3-(7-hydroxymethyl-2-methyl-4-oxo-4H-quinazolin-3-yl)-9-methyl-1-phenyl-6,7-dihydro-3H-[1,4]diazepino[6,7,1-hi]indol-4-one]
- IC50: 79 nM

SMILES: Cc1cc2c3c(c1)C(c1ccccc1)=N[C@@H](n1c(C)nc4cccc(F)c4c1=O)C(=O)N3CC2 [Example 12]
- IC50: 88 nM

SMILES: Cc1cc2c3c(c1)C(c1ccccc1)=NC(n1c(C)nc4cccc(Cl)c4c1=O)C(=O)N3CC2 (centres unmarked) [Example 13, 3-(5-chloro-2-methyl-4-oxo-4H-quinazolin-3-yl)-9-methyl-1-phenyl-6,7-dihydro-3H-[1,4]diazepino-[6,7,1-hi]indol-4-one]
- IC50: 83 nM

SMILES: CCOC(=O)c1nc2ccccc2c(=O)n1C1N=C(c2ccccc2)c2cc(C)cc3c2N(CC3)C1=O (centres unmarked) [Example 14, ethyl 3-(9-methyl-4-oxo-1-phenyl-3,4,6,7-tetrahydro-[1,4]diazepino[6,7,1-hi]indol-3-yl)-4-oxo-3,4-dihydroquinazoline-2-carboxylate]
- IC50: 310 nM

SMILES: CCOC(=O)c1nc2cccc(Cl)c2c(=O)n1C1N=C(c2ccccc2)c2cc(C)cc3c2N(CC3)C1=O (centres unmarked) [Example 15, Ethyl 5-chloro-3-(9-methyl-4-oxo-1-phenyl-3,4,6,7-tetrahydro-[1,4]diazepino[6,7,1-hi]indol-3-yl)-4oxo-3,4-dihydroquinazoline-2-carboxylate]
- IC50: 82 nM

SMILES: CCOC(=O)Cc1nc2ccccc2c(=O)n1C1N=C(c2ccccc2)c2cc(C)cc3c2N(CC3)C1=O (centres unmarked) [Example 16, Ethyl [3-(9-methyl-4-oxo-1-phenyl-3,4,6,7-tetrahydro-[1,4]diazepino[6,7,1-hi]indol-3-yl)-4-oxo-3,4-dihydro-2-quinazolinyl]acetate]
- IC50: 260 nM

SMILES: COCc1nc2ccccc2c(=O)n1C1N=C(c2ccccc2)c2cc(C)cc3c2N(CC3)C1=O (centres unmarked) [Example 17A, 9-Methyl-3-(2-methyloxymethyl-4-oxo-4H-quinazolin-3-yl)-1-phenyl-6,7-dihydro-3H-[1,4]diazepino[6,7,1-hi]indol-4-one]
- IC50: 137 nM

SMILES: Cc1cc2c3c(c1)C(c1ccccc1)=NC(n1c(CO)nc4ccccc4c1=O)C(=O)N3CC2 (centres unmarked) [Example 17B, 9-Methyl-3-(2-hydroxymethyl-4-oxo-4H-quinazolin-3-yl)-1-phenyl-6,7-dihydro-3H-[1,4]diazepino[6,7,1-hi]indol-4-one]
- IC50: 221 nM

SMILES: Cc1cc2c3c(c1)C(c1ccccc1)=NC(n1c(COC(=O)CCC(=O)O)nc4ccccc4c1=O)C(=O)N3CC2 (centres unmarked) [Example 17C, [3-(9-Methyl-4-oxo-1-phenyl-3,4,6,7-tetrahydro-[1,4]diazepino[6,7,1-hi]indol-3-yl)-4-oxo-3,4-dihydroquinazolin-2-yl]methyl hydrogen succinate]
- IC50: 339 nM

SMILES: COCCOCCOCC(=O)OCc1nc2ccccc2c(=O)n1C1N=C(c2ccccc2)c2cc(C)cc3c2N(CC3)C1=O (centres unmarked) [Example 17D, [3-(9-Methyl-4-oxo-1-phenyl-3,4,6,7-tetrahydro-[1,4]diazepino[6,7,1-hi]iondol-3-yl)-4-oxo-3,4-dihydroquinazolin-2-yl]methanol [2-(2-methoxyethoxy)ethoxy]acetate]
- IC50: 286 nM

SMILES: Cc1cc2c3c(c1)C(c1ccccc1)=NC(n1c(COC(=O)CCC(=O)NCCN4CCOCC4)nc4ccccc4c1=O)C(=O)N3CC2 (centres unmarked) [Example 17E, 3-(9-Methyl-4-oxo-1-phenyl-3,4,6,7-tetrahydro-[1,4]diazepino [6,7,1-hi]indol-3-yl)-4-oxo-3,4-dihydroquinazolin-2-ylmethyl N-(2-morpholin-4-ylethyl)succinamate]
- IC50: 222 nM

SMILES: Cc1cc2c3c(c1)C(c1ccccc1)=NC(n1c(COC(=O)CCC(=O)OCCN4CCOCC4)nc4ccccc4c1=O)C(=O)N3CC2 (centres unmarked) [Example 17F, 3-(9-Methyl-4-oxo-1-phenyl-3,4,6,7-tetrahydro-[1,4]diazepino[6,7,1-hi]indol-3-yl)-4-oxo-3,4-dihydroquinazolin-2-ylmethyl 2-morpholin-4-ylethyl succinnate]
- IC50: 147 nM

SMILES: COC(=O)[C@H](CCCCNC(=O)OC(C)(C)C)NC(=O)CCC(=O)OCc1nc2ccccc2c(=O)n1C1N=C(c2ccccc2)c2cc(C)cc3c2N(CC3)C1=O (some centres unmarked) [Example 17G, Methyl 6-t-butoxycarbonylamino-2-{3-[3-(9-methyl-4-oxo-1-phenyl-3,4,6,7-tetrahydro-[1,4]diazepino[6,7,1-hi]indol-3-yl)-4-oxo-3,4-dihydroquinazolin-2-ylmethoxycarbonyl]propionylamino}hexanoate]
- IC50: 516 nM

SMILES: CCOC(=O)CCc1nc2ccccc2c(=O)n1C1N=C(c2ccccc2)c2cc(C)cc3c2N(CC3)C1=O (centres unmarked) [Example 17H, Ethyl 3-[3-(9-methyl 4oxo-1-phenyl-3,4,6,7-tetrahydro[1,4]diazepino[6,7,1-hi]indol-3-yl)-4-oxo-3,4-dihydroquinazolin-2-yl]propanoate]
- IC50: 184 nM

SMILES: Cc1cc2c3c(c1)C(c1ccccc1)=NC(n1cnc4ccccc4c1=O)C(=O)N3CC2 (centres unmarked) [Example 18, 3(9-Methyl-3-oxo-4H-quinazolin-3-yl)-1-phenyl-6,7-dihydro-3H-[1,4]diazepino[6,7,1-hi]indol-4one]
- IC50: 823 nM

SMILES: Cc1cc2c3c(c1)C(c1ccccc1)=N[C@@H](n1c(C)nc4cnccc4c1=O)C(=O)N3CC2 [Example 19, (3S)-3-(2-Methyl-4-oxo-4H-pyrido[3,4-d]-pyrimidin-3-yl)-9-methyl-1-phenyl-6,7-dihydro-3H-[1,4]diazepino[6,7,1-hi]indol-1-one]
- IC50: 193 nM

SMILES: Cc1ccc2nc(C)n(C3N=C(c4ccccc4)c4cc([N+](=O)[O-])cc5c4N(CC5)C3=O)c(=O)c2c1 (centres unmarked) [Example 22, 3-(2,6-Dimethyl-4-oxo-4H-quinazolin-3-yl)-9-nitro-1-phenyl-6,7-dihydro-3H-[1,4]diazepino-[6,7,1-hi]indol-4-one]
- IC50: 1730 nM

SMILES: Cc1ccc2c(=O)n(C3N=C(c4ccccc4)c4cc([N+](=O)[O-])cc5c4N(CC5)C3=O)c(C)nc2c1 (centres unmarked) [Example 23, 3-(2,7-Dimethyl-4-oxo-4H-quinazolin-3-yl)-9-nitro-1-phenyl-6,7-dihydro-3H-[1,4]diazepino-[6,7,1-hi]indol-4-one]
- IC50: 497 nM

SMILES: Cc1cccc2c(=O)n(C3N=C(c4ccccc4)c4cc([N+](=O)[O-])cc5c4N(CC5)C3=O)c(C)nc12 (centres unmarked) [Example 24, 3-(2,8-Dimethyl-4-oxo-4H-quinazolin-3-yl)-9-nitro-1-phenyl-6,7-dihydro-3H-[1,4]diazepino-[6,7,1-hi]indol-4-one]
- IC50: 30600 nM

SMILES: Cc1cc(C)c2nc(C)n(C3N=C(c4ccccc4)c4cc([N+](=O)[O-])cc5c4N(CC5)C3=O)c(=O)c2c1 (centres unmarked) [Example 25, 3(2,6,8-Trimethyl-4-oxo-4H-quinazolin-3-yl)-9-nitro-1-phenyl-6,7-dihydro-3H-[1,4]diazepino[6,7,1-hi]indol-4-one]
- IC50: > 100000 nM

SMILES: Cc1cc(Br)c2nc(C)n(C3N=C(c4ccccc4)c4cc([N+](=O)[O-])cc5c4N(CC5)C3=O)c(=O)c2c1 (centres unmarked) [Example 26, 3-(8-Bromo-2,6-dimethyl-4-oxo-4H-quinazolin-3-yl)-9-nitro-1-phenyl-6,7-dihydro-3H-[1,4]diazepino-[6,7,1-hi]indol-4-one]
- IC50: 90600 nM

SMILES: Cc1nc2ccccc2c(=O)n1[C@@H]1N=C(c2ccccc2)c2cc(N)cc3c2N(CC3)C1=O [Example 28, (3S)-9-Amino-3-(2-methyl-4oxo-4H-quinazolin-3-yl)-1-phenyl-6,7-dihydro-3H-[1,4]diazepino[6,7,1-hi]indol-4-one]
- IC50: 5 nM

SMILES: COC(=O)c1ccc2c(=O)n(C3N=C(c4ccccc4)c4cc(N)cc5c4N(CC5)C3=O)c(C)nc2c1 (centres unmarked) [Example 28A, Methyl 3-(9-amino-4-oxo-1-phenyl-3,4,6,7-tetrahydro-[1,4]diazepino[6,7,1-hi]indol-3-yl)-2-methyl-4-oxo-3,4-dihydroquinazoline-7-carboxylate]
- IC50: 5 nM
